Experimental data published in PubChem BioAssay (NCI).
“And” between values parts separate entries of the source, which are not always exact repeats. Identical values can stand only once.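 Step 1: Grow cells in 96-well plates. Step 2: Expose to compound for 48 hours at 5 concentrations. Step 3: Interpolate endpoints linearly; if unreached, use highest concentration. At the GI50, growth is halved. At the TGI there is no net growth.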

Test system: MDA-MB-468 breast
Assay: NCI-60 cell line screen, 48 h

Row | SMILES | GI50 | TGI
1 | CC(C)N1CCN(Cc2ccc3c(NNC(=O)c4ccccc4)nc4cc(F)ccc4n23)CC1 | 0.26 µM | 1.4 µM
2 | COc1cccc(-c2ccc3c(c2)C2CCN(Cc4ccccc4)C3C2)c1 (stereo not given) | 2.89 µM | 16.1 µM
3 | CN(Cc1cccc(F)c1)c1ccc(CO)c(Cl)c1 | 0.0455 µM | 0.169 µM
4 | O=C(CN1CCN(c2cc3c(cc2F)c(=O)c(C(=O)O)cn3C2CC2)CC1)Nc1nc(-c2ccc(Cl)cc2)cs1 | 3.43 µM | 30.7 µM
5 | CCN(Cc1ccc(F)cc1)c1ccc(CO)c(C)c1 | 0.167 µM | 0.591 µM
6 | COc1ccccc1C1=C(Nc2ccccc2)C(=O)NC1=O | > 10.3 µM | > 25 µM
7 | FC(F)(F)c1ccc(-c2cnc(-n3cc(COCCN4CCCCC4)nn3)nc2NC2CCCCCC2)cc1 | 3.54 µM | 7.37 µM
8 | Cc1ccc(/C=C2\CN(C(=O)C(Cl)Cl)C/C(=C\c3ccc(C)cc3)C2=O)cc1 | 0.195 µM | 0.427 µM
9 | CC1=CC(=O)C(C(C)C)=CC1=Nc1cc(Br)c(O)c(Br)c1 | 3.7 µM | 15.5 µM
10 | COc1ccc(C(c2ccc(OCCN(C)C)cc2)c2cc3ccccc3c3ccccc23)cc1 (stereo not given) | 1.58 µM | 3.15 µM
11 | COC1=C(C)C(=O)c2c(c(CCCl)c3n2CCC3O)C1=O (stereo not given) | 11.1 µM | 34.5 µM
12 | C=C1C(=O)O[C@H]2[C@H]1CC/C(COC(=O)CCSCCC(=O)OC/C1=C/CC[C@@]3(C)O[C@H]3[C@H]3OC(=O)C(=C)[C@@H]3CC1)=C\CC[C@@]1(C)O[C@@H]21 | 0.358 µM | 1.5 µM
13 | Oc1ccc(-c2nc3ccc4[nH]ncc4c3c3c2CCCC3)c(F)c1 | 4.06 µM | 20.3 µM
14 | NC(=S)n1c(=O)n(-c2cccc(C(F)(F)F)c2)c(=O)c2cc(-c3ccc(F)cc3F)ccc21 | 2.01 µM | 5.8 µM
15 | O=C1c2c(c3c4cc(O)ccc4oc3c3[nH]c4ccccc4c23)C(=O)N1O | 0.478 µM | 1.55 µM
16 | COc1cccc(-c2nn(-c3ccccc3)cc2-c2ccnc(NCCNC(=O)Nc3cccc(C(F)(F)F)c3)c2)c1 | 1.7 µM | 3.43 µM
17 | CCN1C(=O)N(CC)C2SC(N/N=C/c3ccccc3)=NC21 (stereo not given) | 0.293 µM | –
18 | COc1cccc(/C=N/NC(=S)NC2CC3CCC2C3)c1O (stereo not given) | 11.4 µM | > 100 µM
19 | CCN1C(=O)CCCc2c1ccc(Nc1ncc(Cl)c(NC3[C@@H](C(N)=O)[C@@H]4C=C[C@H]3C4)n1)c2OC (stereo not given in full) | 1.13 µM | 4.8 µM
20 | Cc1cc(Nc2nc(-c3cccnc3)nc3ccccc23)n[nH]1 | 1.78 µM | 21.4 µM
21 | COc1ccc(-c2ccc(-c3ccc(C(=N)N)nc3)s2)cc1Cl | 1.74 µM | 3.32 µM

Row | SMILES | GI50 | TGI
22 | CCC(c1ccc(OC)cc1)C(CC)c1ccc(O)c(CN2CCN(C)CC2)c1 (stereo not given) | 2.5 µM | 9.77 µM
23 | Brc1ccc2[nH]cc(-c3nc(-c4c[nH]c5ncccc45)cs3)c2c1 | 2.66 µM | 10.9 µM
24 | COc1cc(NS(C)(=O)=O)ccc1Nc1c2ccccc2nc2ccccc12 | 469 nM [middle of 4 runs] | –
25 | COc1ccc(/C=c2\sc3n(c2=O)C2C(NN=3)N(C)C(=O)N2C)cc1 (stereo not given) | 0.231 µM | 0.783 µM
26 | CC1=C(CN(O)C(N)=O)C2=C(C)C3(CC3)[C@](C)(O)C(=O)C2=C1 | 0.184 µM | 0.497 µM
27 | O=[N+]([O-])c1ccc(Oc2nc(Nc3ccc(O[C@H]4CO[C@H]5[C@@H]4OC[C@@H]5O)c(Cl)c3)ncc2F)c(Cl)c1 | 1.47 µM | 4.66 µM
28 | N#Cc1c(Br)n(C2OC(CO)C(O)C2O)c2ncnc(N)c12 (stereo not given) | 2.01 µM | 6.12 µM
29 | Cc1cc2cc3ccc(N(C)C)cc3nc2cc1N | 0.229 µM | 1.26 µM
30 | O=C(O)c1cn(C2CC2)c2cc(N3CCN(C(=O)Nc4nc(-c5ccccc5)cs4)CC3)c(F)cc2c1=O | 0.563 µM | 6.52 µM
31 | CCCCCCNC(=O)Oc1ccc(/C(=C(/C)Cc2ccc(OC)cc2)c2ccc(OCCCN(C)C)cc2)cc1 | 16.7 µM | 32.6 µM
32 | C=C(C)C(=O)O[C@H]1C[C@@]2(C)OC(=CC2=O)/C(CO)=C\[C@H]2OC(=O)C(=C)[C@H]12 | 0.0416 µM | 0.127 µM
33 | COc1cc2c(cc1OC)C(Sc1ccc(SC)cc1)c1c(nc(N)c(C#N)c1N)O2 (stereo not given) | 1.03 µM | 2.62 µM
34 | Nc1nc(N)c(C=Nc2ccc(Br)cc2)c(Nc2ccc(Br)cc2)n1 | 11 µM | 23.3 µM
35 | COc1ccc2c(C3(c4cn(C)c5cc(OC)ccc45)C(=O)Nc4ccc(Cl)cc43)cn(C)c2c1 | 2.54 µM | 9.08 µM
36 | CCOc1cc(Br)c(C(C)NC(=O)c2cccc(OC)c2)cc1OCC (stereo not given) | 3.46 µM | 54.7 µM
37 | Cn1nc(-c2ccc(Cl)cc2)nc2c(=O)n(C)c(=O)nc1-2 | 1.18 µM | 3.35 µM
38 | CC(=O)N1N=C(c2ccc(Nc3ccnc4cc(Cl)ccc34)cc2)CC1c1ccc(Cl)cc1 (stereo not given) | 2.41 µM | > 100 µM
39 | CC1=C(/C=C/C(C)=C/C=C/C(C)=C/C=N/NC(=S)NC(=S)N/N=C/C=C(C)/C=C/C=C(C)/C=C/C2=C(C)CCCC2(C)C)C(C)(C)CCC1 | 3.25 µM and 2.84 µM | 10.5 µM and 10.2 µM
40 | Cn1ccnc1C(=O)/C=C/c1ccc(CNC(=O)c2ccc(Cl)cc2)cc1 | 2.05 µM | 4.75 µM
41 | Cc1ccc(C(NC(=O)c2ccccc2)c2ccc3cccnc3c2O)cc1 (stereo not given) | 0.219 µM | 0.788 µM
